Assay results taken from PubChem BioAssay AID1963846 (Molecular Pharmacology Branch, DTP, NCI, 2024).

System: 454973-116-R2-J3-PDC complex spheroid viability
Test: Anticancer human tumor 454973-116-R2-J3-PDC patient-derived pancreatic carcinoma cell line growth inhibition [POLQ]
Conditions: for IC50: curve of first compound; for viability, T/C: stronger effect = lower value
Method in brief: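 Patient-derived tumour cells were co-cultured with HUVEC and mesenchymal stem cells as multicellular spheroids at 37 °C. They were treated with POLQ inhibitors (novobiocin, ART-558, RP6685) alone or combined with other agents. Top concentrations were at or near clinical Cmax (otherwise 10 microM; SN-38 at 1 microM), decreasing in half-log steps.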

[1] = second compound 0.0316 µM, first compound 0.0316 µM
[2] = second compound 0.0316 µM, first compound 0.1 µM
[3] = second compound 0.0316 µM, first compound 0.316 µM
[4] = second compound 0.0316 µM, first compound 1 µM
[5] = second compound 0.0316 µM, first compound 3.16 µM
[6] = second compound 0.0316 µM, first compound 10 µM
[7] = second compound 0.1 µM, first compound 0.0316 µM
[8] = second compound 0.1 µM, first compound 0.1 µM
[9] = second compound 0.1 µM, first compound 0.316 µM
[10] = second compound 0.1 µM, first compound 1 µM
[11] = second compound 0.1 µM, first compound 3.16 µM
[12] = second compound 0.1 µM, first compound 10 µM
[13] = second compound 0.316 µM, first compound 0.0316 µM
[14] = second compound 0.316 µM, first compound 0.1 µM
[15] = second compound 0.316 µM, first compound 0.316 µM
[16] = second compound 0.316 µM, first compound 1 µM
[17] = second compound 0.316 µM, first compound 3.16 µM
[18] = second compound 0.316 µM, first compound 10 µM
[19] = second compound 1 µM, first compound 0.0316 µM
[20] = second compound 1 µM, first compound 0.1 µM
[21] = second compound 1 µM, first compound 0.316 µM
[22] = second compound 1 µM, first compound 1 µM
[23] = second compound 1 µM, first compound 3.16 µM
[24] = second compound 1 µM, first compound 10 µM
[25] = second compound 3.16 µM, first compound 0.0316 µM
[26] = second compound 3.16 µM, first compound 0.1 µM
[27] = second compound 3.16 µM, first compound 0.316 µM
[28] = second compound 3.16 µM, first compound 1 µM
[29] = second compound 3.16 µM, first compound 3.16 µM
[30] = second compound 3.16 µM, first compound 10 µM
[31] = second compound 10 µM, first compound 0.0316 µM
[32] = second compound 10 µM, first compound 0.1 µM
[33] = second compound 10 µM, first compound 0.316 µM
[34] = second compound 10 µM, first compound 1 µM
[35] = second compound 10 µM, first compound 3.16 µM
[36] = second compound 10 µM, first compound 10 µM
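Note: spheroids exposed to drugs for seven days before measurement.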
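Throughout, for viability, T/C: percent viability relative to DMSO vehicle control wells taken as 100%.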

C#Cc1c(F)ccc2cc(O)cc(-c3ncc4c(N5CC6CCC(C5)N6)nc(OCC56CCCN5CC(F)C6)nc4c3F)c12 (stereo unspecified) + COC1C(OC(N)=O)C(O)C(Oc2ccc3c(O)c(NC(=O)c4ccc(O)c(CC=C(C)C)c4)c(=O)oc3c2C)OC1(C)C
IC50 (second compound 0.0316 µM): 108 nM
IC50 (second compound 0.1 µM): 150 nM
IC50 (second compound 0.316 µM): 127 nM
IC50 (second compound 1 µM): 104 nM
IC50 (second compound 3.16 µM): 131 nM
IC50 (second compound 10 µM): 141 nM
viability, T/C [1]: 72.4%
viability, T/C [2]: 48.9%
viability, T/C [3]: 40%
viability, T/C [4]: 31.8%
viability, T/C [5]: 31.9%
viability, T/C [6]: 23.4%
viability, T/C [7]: 68.2%
viability, T/C [8]: 55.6%
viability, T/C [9]: 40.1%
viability, T/C [10]: 30.3%
viability, T/C [11]: 39.8%
viability, T/C [12]: 25.3%
viability, T/C [13]: 83.9%
viability, T/C [14]: 52.4%
viability, T/C [15]: 39.2%
viability, T/C [16]: 29.7%
viability, T/C [17]: 27.8%
viability, T/C [18]: 26.7%
viability, T/C [19]: 67.3%
viability, T/C [20]: 52.3%
viability, T/C [21]: 34.7%
viability, T/C [22]: 38.3%
viability, T/C [23]: 31.1%
viability, T/C [24]: 27.9%
viability, T/C [25]: 69.7%
viability, T/C [26]: 53.4%
viability, T/C [27]: 41%
viability, T/C [28]: 29.8%
viability, T/C [29]: 32.9%
viability, T/C [30]: 24.2%
viability, T/C [31]: 63%
viability, T/C [32]: 56.6%
viability, T/C [33]: 35%
viability, T/C [34]: 30.1%
viability, T/C [35]: 26.6%
viability, T/C [36]: 22.6%

O=c1[nH]cc(F)c(=O)[nH]1 + Cc1cccc(N(C)C(=O)C2C(O)CCN2c2nc(C)cc(C(F)(F)F)c2C#N)c1
IC50 (second compound 0.0316 µM): 2930 nM
IC50 (second compound 0.1 µM): 2680 nM
IC50 (second compound 0.316 µM): 2560 nM
IC50 (second compound 1 µM): 2570 nM
IC50 (second compound 3.16 µM): 2530 nM
IC50 (second compound 10 µM): 2540 nM
viability, T/C [1]: 99.3%
viability, T/C [2]: 104%
viability, T/C [3]: 98.1%
viability, T/C [4]: 104%
viability, T/C [5]: 46.3%
viability, T/C [6]: 30.7%
viability, T/C [7]: 109%
viability, T/C [8]: 108%
viability, T/C [9]: 111%
viability, T/C [10]: 102%
viability, T/C [11]: 41.1%
viability, T/C [12]: 33.1%
viability, T/C [13]: 107%
viability, T/C [14]: 115%
viability, T/C [15]: 123%
viability, T/C [16]: 96.9%
viability, T/C [17]: 40.1%
viability, T/C [18]: 37%
viability, T/C [19]: 119%
viability, T/C [20]: 112%
viability, T/C [21]: 112%
viability, T/C [22]: 95%
viability, T/C [23]: 40%
viability, T/C [24]: 31.6%
viability, T/C [25]: 116%
viability, T/C [26]: 118%
viability, T/C [27]: 108%
viability, T/C [28]: 93.4%
viability, T/C [29]: 38.9%
viability, T/C [30]: 32%
viability, T/C [31]: 116%
viability, T/C [32]: 108%
viability, T/C [33]: 104%
viability, T/C [34]: 92.2%
viability, T/C [35]: 39.6%
viability, T/C [36]: 30.9%

COc1ccc([C@@H](O)c2cc(-c3ncnc4cc(N5CCOCC5)ccc34)c(F)cc2Cl)nn1 + Cc1cccc(N(C)C(=O)C2C(O)CCN2c2nc(C)cc(C(F)(F)F)c2C#N)c1
IC50 (second compound 0.0316 µM): > 10000 nM
IC50 (second compound 0.1 µM): > 10000 nM
IC50 (second compound 0.316 µM): > 10000 nM
IC50 (second compound 1 µM): > 10000 nM
IC50 (second compound 3.16 µM): > 10000 nM
IC50 (second compound 10 µM): > 10000 nM
viability, T/C [1]: 105%
viability, T/C [2]: 114%
viability, T/C [3]: 101%
viability, T/C [4]: 92.5%
viability, T/C [5]: 70.2%
viability, T/C [6]: 56.4%
viability, T/C [7]: 104%
viability, T/C [8]: 99%
viability, T/C [9]: 102%
viability, T/C [10]: 95.5%
viability, T/C [11]: 71.1%
viability, T/C [12]: 58%
viability, T/C [13]: 107%
viability, T/C [14]: 99.8%
viability, T/C [15]: 103%
viability, T/C [16]: 91.8%
viability, T/C [17]: 76.2%
viability, T/C [18]: 55%
viability, T/C [19]: 109%
viability, T/C [20]: 105%
viability, T/C [21]: 107%
viability, T/C [22]: 87.1%
viability, T/C [23]: 71.5%
viability, T/C [24]: 53.3%
viability, T/C [25]: 112%
viability, T/C [26]: 101%
viability, T/C [27]: 108%
viability, T/C [28]: 87.7%
viability, T/C [29]: 74.7%
viability, T/C [30]: 58.4%
viability, T/C [31]: 112%
viability, T/C [32]: 99.9%
viability, T/C [33]: 99.3%
viability, T/C [34]: 84.5%
viability, T/C [35]: 64.7%
viability, T/C [36]: 59.8%
